Legend:
microbial load [1] = experiment: Microbial load reduction on QAC-coated cotton cloth with or without electric field; type: cell-based
Protocol: The effect of QAC coating and electric field application on flexible solid surfaces was analysed. The solid surface analysed was fabric (cotton cloth). The procedure for coating of QAC (CTAB or benzalkonium chloride) onto the cotton cloth was identical to the procedure described in Example 1. The final coated amount of QAC (CTAB or benzalkonium chloride) was between 0.01-0.05 mg/cm^2 of the solid surface. The electric field in this experiment was applied via. switch mode power supply (SMPS) with a voltage of 4 kV/cm coupled with a capacitance of 0.05 μF for various time-periods.
Reduction in microbial load was analysed using different methods.

microbial load [2] = experiment: Microbial load reduction on cotton cloth coated with quaternary ammonium compound alone; type: cell-based; conditions: no electric field
Protocol: The solid surface (cotton cloth) was suspended in a solution containing cetyltrimethylammonium bromide (CTAB) or alkyl dimethyl benzyl ammonium chloride (benzalkonium chloride) at various concentrations for about 2 hours. The solid surfaces were then heat dried in a furnace where the temperature was set at about 80° C., for about 8 hours. Once dried, the solid surfaces coated with QAC were ready to be used for various applications.
Reduction in microbial load was analysed at different concentrations of QACs.

alkyl dimethyl benzyl ammonium chloride [benzalkonium chloride]
Microbial Load Reduction (Log10 Scale) (microbial load [1]; cotton cloth coated with 1% w/v, With Electric Field (SMPS, 4 kV/cm, 0.05 μF), 0 mins): 0.00 Log10
Microbial Load Reduction (Log10 Scale) (microbial load [1]; cotton cloth coated with 1% w/v, With Electric Field (SMPS, 4 kV/cm, 0.05 μF), 10 mins): 1.51 Log10
Microbial Load Reduction (Log10 Scale) (microbial load [1]; cotton cloth coated with 1% w/v, With Electric Field (SMPS, 4 kV/cm, 0.05 μF), 30 mins): 2.39 Log10
Microbial Load Reduction (Log10 Scale) (microbial load [1]; cotton cloth coated with 1% w/v, Without Electric Field, 0 mins): 0.00 Log10
Microbial Load Reduction (Log10 Scale) (microbial load [1]; cotton cloth coated with 1% w/v, Without Electric Field, 10 mins): 0.82 Log10
Microbial Load Reduction (Log10 Scale) (microbial load [1]; cotton cloth coated with 1% w/v, Without Electric Field, 30 mins): 1.70 Log10
Microbial Load Reduction (Log10 Scale) (microbial load [1]; cotton cloth coated with 10% w/v, With Electric Field (SMPS, 4 kV/cm, 0.05 μF), 0 mins): 0.00 Log10
Microbial Load Reduction (Log10 Scale) (microbial load [1]; cotton cloth coated with 10% w/v, With Electric Field (SMPS, 4 kV/cm, 0.05 μF), 10 mins): 1.16 Log10
Microbial Load Reduction (Log10 Scale) (microbial load [1]; cotton cloth coated with 10% w/v, With Electric Field (SMPS, 4 kV/cm, 0.05 μF), 30 mins): 3.03 Log10
Microbial Load Reduction (Log10 Scale) (microbial load [1]; cotton cloth coated with 10% w/v, Without Electric Field, 0 mins): 0.00 Log10
Microbial Load Reduction (Log10 Scale) (microbial load [1]; cotton cloth coated with 10% w/v, Without Electric Field, 10 mins): 0.92 Log10
Microbial Load Reduction (Log10 Scale) (microbial load [1]; cotton cloth coated with 10% w/v, Without Electric Field, 30 mins): 3.10 Log10
Microbial Load Reduction (Log10 Scale) (microbial load [2]; cotton cloth coated with 1% w/v, 0 mins): 0.00 Log10
Microbial Load Reduction (Log10 Scale) (microbial load [2]; cotton cloth coated with 1% w/v, 10 mins): 0.82 Log10
Microbial Load Reduction (Log10 Scale) (microbial load [2]; cotton cloth coated with 1% w/v, 30 mins): 1.70 Log10
Microbial Load Reduction (Log10 Scale) (microbial load [2]; cotton cloth coated with 1% w/v, 45 mins): 4.57 Log10
Microbial Load Reduction (Log10 Scale) (microbial load [2]; cotton cloth coated with 1% w/v, 60 mins): 7.48 Log10
Microbial Load Reduction (Log10 Scale) (microbial load [2]; cotton cloth coated with 1% w/v, 90 mins): 7.48 Log10
Microbial Load Reduction (Log10 Scale) (microbial load [2]; cotton cloth coated with 10% w/v, 0 mins): 0.00 Log10
Microbial Load Reduction (Log10 Scale) (microbial load [2]; cotton cloth coated with 10% w/v, 10 mins): 0.92 Log10
Microbial Load Reduction (Log10 Scale) (microbial load [2]; cotton cloth coated with 10% w/v, 30 mins): 3.10 Log10
Microbial Load Reduction (Log10 Scale) (microbial load [2]; cotton cloth coated with 10% w/v, 45 mins): 7.30 Log10
Microbial Load Reduction (Log10 Scale) (microbial load [2]; cotton cloth coated with 10% w/v, 60 mins): 7.30 Log10
Microbial Load Reduction (Log10 Scale) (microbial load [2]; cotton cloth coated with 10% w/v, 90 mins): 7.30 Log10

Reference: patent US12582731B2, “Method to decontaminate solid surface” (BIOMONETA RESEARCH PVT LTD, priority 2022, dated 2026)
